PubChem BioAssay AID2060883 (Molecular Pharmacology Branch, DTP, NCI, 2025)
“And” between values parts separate entries of the source, which are not always exact repeats. Equal values may be shown once.

Test system: 843782-103-R-J1-PDC complex spheroid viability
Test: Anticancer human tumor 843782-103-R-J1-PDC patient-derived lung adenocarcinoma cell line growth inhibition [RAS]
Conditions: for viability, T/C: stronger effect = lower value
How it was run: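 Multi-cell-type spheroids: tumor cells plus HUVEC endothelial cells and mesenchymal stem cells. RAS-pathway inhibitors were combined with targeted agents, each dosed in half-log steps down from clinical Cmax, or from 10 microM when Cmax was unknown.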

[1] = curve of first compound, second compound 0.000949 µM
[2] = curve of first compound, second compound 0.003 µM
[3] = curve of first compound, second compound 0.00949 µM
[4] = curve of first compound, second compound 0.03 µM
[5] = curve of first compound, second compound 0.0949 µM
[6] = curve of first compound, second compound 0.3 µM
[7] = second compound 0.000949 µM, first compound 0.0316 µM
[8] = second compound 0.000949 µM, first compound 0.1 µM
[9] = second compound 0.000949 µM, first compound 0.316 µM
[10] = second compound 0.000949 µM, first compound 1 µM
[11] = second compound 0.003 µM, first compound 0.0316 µM
[12] = second compound 0.003 µM, first compound 0.1 µM
[13] = second compound 0.003 µM, first compound 0.316 µM
[14] = second compound 0.003 µM, first compound 1 µM
[15] = second compound 0.00949 µM, first compound 0.0316 µM
[16] = second compound 0.00949 µM, first compound 0.1 µM
[17] = second compound 0.00949 µM, first compound 0.316 µM
[18] = second compound 0.00949 µM, first compound 1 µM
[19] = second compound 0.03 µM, first compound 0.0316 µM
[20] = second compound 0.03 µM, first compound 0.1 µM
[21] = second compound 0.03 µM, first compound 0.316 µM
[22] = second compound 0.03 µM, first compound 1 µM
[23] = second compound 0.0949 µM, first compound 0.0316 µM
[24] = second compound 0.0949 µM, first compound 0.1 µM
[25] = second compound 0.0949 µM, first compound 0.316 µM
[26] = second compound 0.0949 µM, first compound 1 µM
[27] = second compound 0.3 µM, first compound 0.0316 µM
[28] = second compound 0.3 µM, first compound 0.1 µM
[29] = second compound 0.3 µM, first compound 0.316 µM
[30] = second compound 0.3 µM, first compound 1 µM
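Further: viability read after seven days of compound exposure.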

Nc1ccn(C2OC(CO)C(O)C2(F)F)c(=O)n1 (stereo unspecified) + CCn1c(-c2cc(N3CCN(C)CC3)cnc2C(C)OC)c2c3cc(ccc31)-c1csc(n1)CC(NC(=O)C1CC1C)C(=O)N1CCCC(N1)C(=O)OCC(C)(C)C2
IC50 [1]: 0.0179 µM | IC50 [2]: 0.0115 µM | IC50 [3]: < 0.00316 µM | IC50 [4]: < 0.00316 µM | IC50 [5]: < 0.00316 µM | IC50 [6]: < 0.00316 µM | viability, T/C (second compound 0.000949 µM, first compound 0.00316 µM): 83.4% | viability, T/C (second compound 0.000949 µM, first compound 0.01 µM): 73.4% | viability, T/C [7]: 27.1% | viability, T/C [8]: 3.62% | viability, T/C [9]: 1.6% | viability, T/C [10]: 2.63% | viability, T/C (second compound 0.003 µM, first compound 0.00316 µM): 64.4% | viability, T/C (second compound 0.003 µM, first compound 0.01 µM): 54% | viability, T/C [11]: 20.3% | viability, T/C [12]: 3.76% | viability, T/C [13]: 1.56% | viability, T/C [14]: 1.61% | viability, T/C (second compound 0.00949 µM, first compound 0.00316 µM): 37.1% | viability, T/C (second compound 0.00949 µM, first compound 0.01 µM): 36.2% | viability, T/C [15]: 16.3% | viability, T/C [16]: 5.56% | viability, T/C [17]: 2.02% | viability, T/C [18]: 1.82% | viability, T/C (second compound 0.03 µM, first compound 0.00316 µM): 19% | viability, T/C (second compound 0.03 µM, first compound 0.01 µM): 22.7% | viability, T/C [19]: 15.8% | viability, T/C [20]: 7.32% | viability, T/C [21]: 2.39% | viability, T/C [22]: 1.81% | viability, T/C (second compound 0.0949 µM, first compound 0.00316 µM): 15.9% | viability, T/C (second compound 0.0949 µM, first compound 0.01 µM): 18.9% | viability, T/C [23]: 13.9% | viability, T/C [24]: 11.8% | viability, T/C [25]: 4.42% | viability, T/C [26]: 2.61% | viability, T/C (second compound 0.3 µM, first compound 0.00316 µM): 14.3% | viability, T/C (second compound 0.3 µM, first compound 0.01 µM): 16.6% | viability, T/C [27]: 16.6% | viability, T/C [28]: 12.6% | viability, T/C [29]: 7.82% | viability, T/C [30]: 3.72%

CCC(CC)c1cc(NC2CCC(N)C2)n2nccc2n1 (stereo unspecified) + CCn1c(-c2cccnc2C(C)OC)c2c3cc(ccc31)N1CCOC(CC(NC(=O)C(C(C)C)N(C)C(=O)C3(F)CCN(C(=O)C#CC(C)(C)N(C)C)CC3)C(=O)N3CCCC(N3)C(=O)OCC(C)(C)C2)C1
IC50 [1]: 1.02 µM | IC50 [2]: 0.754 µM | IC50 [3]: 1.04 µM | IC50 [4]: 1.07 µM | IC50 [5]: 0.768 µM | IC50 [6]: 0.883 µM | viability, T/C [7]: 70.7% | viability, T/C [8]: 66.5% | viability, T/C [9]: 73.8% | viability, T/C [10]: 50.8% | viability, T/C (second compound 0.000949 µM, first compound 3.16 µM): 1.84% | viability, T/C (second compound 0.000949 µM, first compound 10 µM): 0.99% | viability, T/C [11]: 70.5% | viability, T/C [12]: 87% | viability, T/C [13]: 67.8% | viability, T/C [14]: 44.1% | viability, T/C (second compound 0.003 µM, first compound 3.16 µM): 1.8% | viability, T/C (second compound 0.003 µM, first compound 10 µM): 0.91% | viability, T/C [15]: 73.5% | viability, T/C [16]: 73.7% | viability, T/C [17]: 78.1% | viability, T/C [18]: 51.9% | viability, T/C (second compound 0.00949 µM, first compound 3.16 µM): 3.01% | viability, T/C (second compound 0.00949 µM, first compound 10 µM): 1.66% | viability, T/C [19]: 78.4% | viability, T/C [20]: 82.8% | viability, T/C [21]: 71.9% | viability, T/C [22]: 53.5% | viability, T/C (second compound 0.03 µM, first compound 3.16 µM): 1.5% | viability, T/C (second compound 0.03 µM, first compound 10 µM): 1.09% | viability, T/C [23]: 74.6% | viability, T/C [24]: 67.4% | viability, T/C [25]: 65.7% | viability, T/C [26]: 44.8% | viability, T/C (second compound 0.0949 µM, first compound 3.16 µM): 1.32% | viability, T/C (second compound 0.0949 µM, first compound 10 µM): 0.88% | viability, T/C [27]: 77.3% | viability, T/C [28]: 67.2% | viability, T/C [29]: 61.8% | viability, T/C [30]: 48.4% | viability, T/C (second compound 0.3 µM, first compound 3.16 µM): 1.4% | viability, T/C (second compound 0.3 µM, first compound 10 µM): 0.57%

CCN1CCN(Cc2ccc(Nc3ncc(F)c(-c4cc(F)c5nc(C)n(C(C)C)c5c4)n3)nc2)CC1
viability, T/C (compound 0.00316 µM): 105% [middle of 4 runs] | viability, T/C (compound 0.01 µM): 97.8% [middle of 4 runs] | viability, T/C (compound 0.0316 µM): 99.3% [middle of 4 runs] | viability, T/C (compound 0.1 µM): 102% (2×) and 90.9% and 101% | viability, T/C (compound 0.316 µM): 95.1% [middle of 4 runs] | viability, T/C (compound 1 µM): 70% [middle of 4 runs] | IC50 (curve of compound): > 1 µM and 0.906 µM
